Results: ChEMBL document CHEMBL1201862, “PubChem BioAssay data set” (2004)
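Grown in 96-well plates, cells were treated for 48 hours with each compound at five concentrations. Insufficient inhibition: endpoint recorded as highest concentration tested. GI50 is the concentration that inhibits growth by half.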 Active and inactive are the calls of the source. No stated cut-off is given here; in the data, active = GI50 up to about 1.1 µM and inactive = higher.

Legend:
Assay in all cases: growth of human tumour cells (NCI), 48 h
OVCAR-5 = system: OVCAR-5
BT-549 = system: BT-549
U-251 = system: U-251
SK-MEL-5 = system: SK-MEL-5
HCT-15 = system: HCT-15
SK-OV-3 = system: SK-OV-3
UO-31 = system: UO-31
HOP-62 = system: HOP-62
NCI-H460 = system: NCI-H460
SNB-75 = system: SNB-75
MDA-MB-435 = system: MDA-MB-435
HCC 2998 = system: HCC 2998
SF-539 = system: SF-539
NCI-H226 = system: NCI-H226
OVCAR-3 = system: OVCAR-3
SK-MEL-2 = system: SK-MEL-2
ACHN = system: ACHN
CCRF-CEM = system: CCRF-CEM
UACC-62 = system: UACC-62

Row | Compound | GI50 (OVCAR-5) | GI50 (BT-549) | GI50 (U-251) | GI50 (SK-MEL-5) | GI50 (HCT-15) [µM] | GI50 (SK-OV-3) | GI50 (UO-31) | GI50 (HOP-62) | GI50 (NCI-H460) | GI50 (SNB-75) | GI50 (MDA-MB-435) | GI50 (HCC 2998) | GI50 (SF-539) | GI50 (NCI-H226) | GI50 (OVCAR-3) | GI50 (SK-MEL-2) | GI50 (ACHN) | GI50 (CCRF-CEM) | GI50 (UACC-62)
1 | CCN(CC)C(=S)N/N=C(/c1ccccc1)c1ccccn1 | 0.238 µM (active) | 0.471 µM (active) | 0.0995 µM (active) | 0.209 µM (active) | 0.126 | 0.673 µM (active) | 0.459 µM (active) | 0.292 µM (active) | 0.0783 µM (active) | 0.875 µM (active) | 0.705 µM (active) | 2.15 µM (inactive) | 0.343 µM (active) | 1.66 µM (inactive) | 0.0288 µM (active) | 0.711 µM (active) | 0.264 µM (active) | 0.024 µM (active) | 
2 | Cc1ccc(N2C3=C(CC4=C2CC(C)(C)CC4=O)C(=O)CC(C)(C)C3)cc1 | > 100 µM (inactive) | > 100 µM (inactive) | > 100 µM (inactive) | > 100 µM (inactive) | > 100 | > 100 µM (inactive) | > 100 µM (inactive) | > 100 µM (inactive) | > 100 µM (inactive) | 27.6 µM (inactive) | > 100 µM (inactive) | > 100 µM (inactive) | > 100 µM (inactive) | > 100 µM (inactive) | > 100 µM (inactive) |  | > 100 µM (inactive) | > 100 µM (inactive) | > 100 µM (inactive)
3 | OC[C@H]1O[C@@H](Oc2cc(O)cc(/C=C/c3ccc(O)cc3)c2)[C@H](O)[C@@H](O)[C@@H]1O [PICEID] | > 100 µM (inactive) | > 100 µM (inactive) | > 100 µM (inactive) | > 100 µM (inactive) | > 100 | > 100 µM (inactive) | > 100 µM (inactive) | > 100 µM (inactive) | > 100 µM (inactive) | > 100 µM (inactive) | > 100 µM (inactive) |  | > 100 µM (inactive) | > 100 µM (inactive) | > 100 µM (inactive) | > 100 µM (inactive) | > 100 µM (inactive) | > 100 µM (inactive) | > 100 µM (inactive)
4 | CCC(NC(C)c1ccccc1)C(=O)c1ccc(OCc2ccccc2)c(OCc2ccccc2)c1 (stereo not given) | > 100 µM (inactive) | > 100 µM (inactive) | > 100 µM (inactive) | > 100 µM (inactive) | > 100 | > 100 µM (inactive) | > 100 µM (inactive) | > 100 µM (inactive) | > 100 µM (inactive) | > 100 µM (inactive) | > 100 µM (inactive) | > 100 µM (inactive) | > 100 µM (inactive) | > 100 µM (inactive) | > 100 µM (inactive) |  | > 100 µM (inactive) |  | > 100 µM (inactive)
5 | COC1=CC2=NCCc3n[nH]c(c32)C1=O | 18.5 µM (inactive) | 16.9 µM (inactive) | 16.7 µM (inactive) | 18.3 µM (inactive) | 46.3 |  | 24.7 µM (inactive) | 31.7 µM (inactive) | 27 µM (inactive) |  | 11.5 µM (inactive) | 47.1 µM (inactive) | 17.3 µM (inactive) |  | 15.9 µM (inactive) | 15.3 µM (inactive) | 19.2 µM (inactive) |  | 14 µM (inactive)
6 | O=C(c1ccccc1)c1ccc2[nH]c(-c3c(Cl)c(Cl)c(Cl)c(Cl)c3C(=O)Nc3ccco3)nc2c1 | > 100 µM (inactive) | 22.2 µM (inactive) | 42.5 µM (inactive) | 28.4 µM (inactive) | 27.2 | > 100 µM (inactive) | 51.5 µM (inactive) | 45.3 µM (inactive) | 33.5 µM (inactive) | > 100 µM (inactive) | 12.6 µM (inactive) | 15.4 µM (inactive) |  | 54.2 µM (inactive) | 49.4 µM (inactive) | 20.9 µM (inactive) | > 100 µM (inactive) | 26.9 µM (inactive) | 49.5 µM (inactive)
7 | COC(=O)c1c2c(cc3c1CC1(Cc4ccccc4C1)C3)CCC2 | 25.2 µM (inactive) | 20.9 µM (inactive) | 20.9 µM (inactive) | 13.5 µM (inactive) | 23 | 31.4 µM (inactive) | 13 µM (inactive) | 28.2 µM (inactive) | 30.5 µM (inactive) | 26.2 µM (inactive) | 8.91 µM (inactive) | 33.1 µM (inactive) | 39.5 µM (inactive) | 31.7 µM (inactive) | 18.9 µM (inactive) |  | 23.8 µM (inactive) | 17.2 µM (inactive) | 20.9 µM (inactive)
8 | Nc1nc(SCc2ccccn2)c2ncn(C3CCCC3)c2n1 | > 100 µM (inactive) | > 100 µM (inactive) | > 100 µM (inactive) | > 100 µM (inactive) | > 100 | > 100 µM (inactive) | 15 µM (inactive) | > 100 µM (inactive) | > 100 µM (inactive) | 40.5 µM (inactive) | > 100 µM (inactive) | > 100 µM (inactive) |  | > 100 µM (inactive) | > 100 µM (inactive) | > 100 µM (inactive) | > 100 µM (inactive) | > 100 µM (inactive) | > 100 µM (inactive)
9 | CCOC1CN(C)/C(=N\c2cccc3ccccc23)S1 (stereo not given) | > 10 µM (inactive) | > 10 µM (inactive) | > 10 µM (inactive) | > 10 µM (inactive) | > 10 | > 10 µM (inactive) | > 10 µM (inactive) | > 10 µM (inactive) | > 10 µM (inactive) | > 10 µM (inactive) | > 10 µM (inactive) | > 10 µM (inactive) | > 10 µM (inactive) | > 10 µM (inactive) | > 10 µM (inactive) |  | > 10 µM (inactive) | > 10 µM (inactive) | > 10 µM (inactive)
10 | N#C/C=C(/NC(=O)Nc1ccccc1)N1CCCC1 | > 65.6 µM (inactive) | > 67.5 µM (inactive) | > 36.8 µM (inactive) | 56.4 µM (inactive) | > 56.2 | > 100 µM (inactive) | > 89.3 µM (inactive) |  | > 37.5 µM (inactive) |  | > 68.9 µM (inactive) | > 30.3 µM (inactive) | > 47.4 µM (inactive) | > 42 µM (inactive) | > 100 µM (inactive) | > 32.9 µM (inactive) | > 38.7 µM (inactive) | > 100 µM (inactive) | > 82.6 µM (inactive)
11 | COc1ccc2c3c1OC1C(OC)(OC)CC4(C=C2)CN(C)CCC314 (stereo not given) | > 100 µM (inactive) | > 100 µM (inactive) | > 100 µM (inactive) | > 100 µM (inactive) | > 100 | > 100 µM (inactive) | > 100 µM (inactive) | > 100 µM (inactive) | > 100 µM (inactive) | > 100 µM (inactive) | > 100 µM (inactive) | > 100 µM (inactive) | > 100 µM (inactive) | > 100 µM (inactive) | > 100 µM (inactive) |  | > 100 µM (inactive) | 30.4 µM (inactive) | > 100 µM (inactive)
12 | Nc1ccc2c(c1)Nc1c3ccccc3nc3cccc-2c13 | 1.77 µM (inactive) | 3.6 µM (inactive) | 1.53 µM (inactive) | 1.75 µM (inactive) |  | 1.61 µM (inactive) | 1.72 µM (inactive) | 1.3 µM (inactive) | 1.02 µM (active) | 1.4 µM (inactive) | 1.81 µM (inactive) | 1.2 µM (inactive) | 1.66 µM (inactive) | 1.62 µM (inactive) | 1.72 µM (inactive) | 1.73 µM (inactive) | 1.43 µM (inactive) | 3.85 µM (inactive) | 1.82 µM (inactive)
13 | N=C(N)NCCNC(=N)N | > 100 µM (inactive) | > 100 µM (inactive) | > 100 µM (inactive) | > 100 µM (inactive) | > 100 | > 100 µM (inactive) | > 100 µM (inactive) | > 100 µM (inactive) | > 100 µM (inactive) | 89.9 µM (inactive) | > 100 µM (inactive) | > 100 µM (inactive) | > 100 µM (inactive) |  | > 100 µM (inactive) | > 100 µM (inactive) | > 100 µM (inactive) | > 100 µM (inactive) | > 100 µM (inactive)
14 | Cc1nn2c(C(=O)N/N=C/c3ccccc3O)c(C)nc2s1 | > 100 µM (inactive) | > 100 µM (inactive) | 38 µM (inactive) | 60.3 µM (inactive) | 41.9 |  | > 100 µM (inactive) | > 100 µM (inactive) | 49.7 µM (inactive) | > 100 µM (inactive) | > 100 µM (inactive) | 55.1 µM (inactive) | > 100 µM (inactive) | 89.3 µM (inactive) | 3.09 µM (inactive) |  | 56.1 µM (inactive) | 41.2 µM (inactive) | > 100 µM (inactive)
15 | COc1cccc(-c2nc(-c3cnccn3)n(C3OC(CO)C(O)C3O)n2)c1 (stereo not given) | > 100 µM (inactive) | > 100 µM (inactive) | > 100 µM (inactive) | > 100 µM (inactive) | > 100 | > 100 µM (inactive) | > 100 µM (inactive) | > 100 µM (inactive) | > 100 µM (inactive) | > 100 µM (inactive) | > 100 µM (inactive) | > 100 µM (inactive) | > 100 µM (inactive) |  | > 100 µM (inactive) |  |  | > 100 µM (inactive) | > 100 µM (inactive)
16 | O=C1c2ccccc2NC(c2cc(Cl)cc(Cl)c2O)N1CCc1ccccn1 (stereo not given) | > 100 µM (inactive) | > 100 µM (inactive) | 39.8 µM (inactive) | > 100 µM (inactive) | 86.3 | > 100 µM (inactive) | > 100 µM (inactive) | > 100 µM (inactive) | 56.2 µM (inactive) | 42.6 µM (inactive) | 68.1 µM (inactive) | 53.2 µM (inactive) | > 100 µM (inactive) | > 100 µM (inactive) | > 100 µM (inactive) | > 100 µM (inactive) | 87.3 µM (inactive) |  | > 100 µM (inactive)
